In patent publication US10258629B2, “Liposomal drug encapsulation” (priority 2014, dated 2019):

Assays:
[1] = Reverse pH gradient encapsulation efficiency of staurosporine in liposomes
Method: The dried lipid film was hydrated with a buffer containing ammonium phosphate, ammonium sulfate, sodium phosphate, or sodium sulfate (300 mM, 7.4) and vortexed for 1 minute to remove any adhering lipid film. Sonication in a bath sonicator (ULTRAsonik 28X) for 1 minute at room temperature produced multilamellar vesicles (MLV). ME-Vs were then sonicated with a Ti-probe (Branson 450 sonifier) for 2 minutes to produce small unilamellar vesicles (SUV), indicated by the formation of a translucent solution. Extrusion through a 100 nm pore size polycarbonate filter (Whatman) was the final stage of a stepwise series of extrusions to reduce SUV size.
The prepared liposomes with internal buffer at pH 3 or 7.4 were passed through a Sephadex G-50 column equilibrated with HEPES buffered saline (FIBS; 20 mM HEPES, 150 mM NaCl, pH 7.4) to exchange the external buffer.

[2] = tested on: U87 cells; assay: In vivo anti-tumor activity against very large U87 flank tumors (FIG. 9); conditions: treatment over two weeks
[3] = Acute toxicity of free staurosporine; conditions: 5 mg/Kg free staurosporine
[4] = 0.8 mg/Kg injected as free staurosporine; 'would very likely be'; cited from earlier work

For `CN[C@@H]1C[C@H]2O[C@@](C)([C@@H]1OC)n1c3ccccc3c3c4c(c5c6ccccc6n2c5c31)C(=O)NC4` [free staurosporine, (9S, 10R, 11R, 13R)-2,3,10,11,12,13-Hexahydro-10-methoxy-9-methyl-11-(methylamino)-9,13-epoxy-1H,9H-diindolo[1,2,3-gh:3′,2′r-lm]pyrrolo[3,4-j][1,7]benzodiazonin-1-one], the “Increase of encapsulation when a pH gradient existed” value ([1]; internal buffer pH 7.4 versus pH 3, external buffer constant at pH 3) was 14 fold, the Encapsulation rate ([1]; internal pH 5, external pH 7.4) was “very low encapsulation rates” and the “Liposomal loading capacity, peak value” ([1]; lipid to drug ratio 11.11 (mole/mole)) was 70%. For the same molecule, the Body weight [2] was “body weight did decline”, the Tumor growth ([2]; tumors 180-200 mm^3 at start, relative to PBS, p<0.004 for liposomal) was “no demonstrable effect” and the Acute lethality [3] was “acutely lethal”. The “Fraction cleared after only one circulatory pass” value [4] was 99%.
